What was measured:
Format in all cases: biochemical
Abl = biological target: T1, Abl (Homo sapiens, UniProt P00519); test: AlphaScreen kinase assay, Abl; settings: read-out: activity toward kinase Abl, IC50
T1 construct: P1121. pET-SPEC BI-PTP Abl G227-V515-X; His6 (N); made in house; host or cells: E. coli (PTP1B co-expressed)
T1 sequence (P00519 with tags, fused parts or gaps): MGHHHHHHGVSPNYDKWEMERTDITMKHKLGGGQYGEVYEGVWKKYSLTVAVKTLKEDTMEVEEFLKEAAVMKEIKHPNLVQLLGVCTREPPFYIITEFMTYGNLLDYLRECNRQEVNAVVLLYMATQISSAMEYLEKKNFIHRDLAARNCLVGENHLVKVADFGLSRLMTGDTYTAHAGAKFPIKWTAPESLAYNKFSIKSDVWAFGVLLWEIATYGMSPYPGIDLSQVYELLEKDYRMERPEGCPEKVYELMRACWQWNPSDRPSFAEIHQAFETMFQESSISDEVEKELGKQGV
Method in brief: (§1)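 Inhibition reads as diminished acceptor emission, since unphosphorylated peptide fails to bridge antibody acceptor beads and streptavidin donor beads. Titration: eight points, 1:3 steps, stocks at 20 mM in DMSO.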

B-Raf = biological target: T2, B-Raf (Homo sapiens, UniProt P15056); test: AlphaScreen kinase assay, B-Raf; settings: read-out: IC50, activity toward kinase B-Raf
T2 construct: purchased Upstate Biotechnology
T2 sequence (P15056 whole entry): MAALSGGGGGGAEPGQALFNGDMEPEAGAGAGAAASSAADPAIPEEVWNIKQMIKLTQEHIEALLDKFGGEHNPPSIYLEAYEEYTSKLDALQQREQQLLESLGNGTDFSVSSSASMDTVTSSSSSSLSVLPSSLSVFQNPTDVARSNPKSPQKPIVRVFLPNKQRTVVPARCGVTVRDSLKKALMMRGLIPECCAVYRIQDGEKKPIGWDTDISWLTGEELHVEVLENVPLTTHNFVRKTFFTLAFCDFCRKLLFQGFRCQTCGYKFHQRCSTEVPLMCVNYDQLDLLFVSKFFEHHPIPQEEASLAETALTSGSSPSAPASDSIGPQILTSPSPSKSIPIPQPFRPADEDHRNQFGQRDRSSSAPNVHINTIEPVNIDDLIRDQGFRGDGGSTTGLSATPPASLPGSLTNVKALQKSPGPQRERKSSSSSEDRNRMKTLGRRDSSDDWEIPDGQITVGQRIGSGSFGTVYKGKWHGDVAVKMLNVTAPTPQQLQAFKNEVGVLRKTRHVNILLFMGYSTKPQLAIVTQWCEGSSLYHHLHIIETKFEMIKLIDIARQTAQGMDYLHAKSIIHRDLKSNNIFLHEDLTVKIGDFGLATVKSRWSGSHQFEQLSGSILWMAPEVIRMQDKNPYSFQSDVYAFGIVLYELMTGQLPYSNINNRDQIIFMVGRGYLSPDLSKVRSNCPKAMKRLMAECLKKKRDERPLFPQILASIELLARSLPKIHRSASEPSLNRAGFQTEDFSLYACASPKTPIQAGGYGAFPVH

B-Raf V600E = biological target: T3, B-Raf V600E (Homo sapiens, UniProt P15056, V600E); test: AlphaScreen kinase assay, B-Raf V600E; settings: read-out: IC50, activity toward kinase B-Raf V600E
T3 construct: P4254. pFastBacBD-CDC37 BRAF D437-K722-X, V600E; His6 with pFastBac HT leader (TEV site) (N); made in house; host or cells: Sf9 (baculovirus; chaperone CDC37 co-expressed)

Erk2 = biological target: T4, Erk2 (Homo sapiens, UniProt P28482); test: AlphaScreen kinase assay, Erk2; settings: read-out: IC50, activity toward kinase Erk2
T4 construct: P4227.pET15S ERK2/MEK1DD; His6 with thrombin site (N); made in house
T4 sequence (P28482 with tags, fused parts or gaps): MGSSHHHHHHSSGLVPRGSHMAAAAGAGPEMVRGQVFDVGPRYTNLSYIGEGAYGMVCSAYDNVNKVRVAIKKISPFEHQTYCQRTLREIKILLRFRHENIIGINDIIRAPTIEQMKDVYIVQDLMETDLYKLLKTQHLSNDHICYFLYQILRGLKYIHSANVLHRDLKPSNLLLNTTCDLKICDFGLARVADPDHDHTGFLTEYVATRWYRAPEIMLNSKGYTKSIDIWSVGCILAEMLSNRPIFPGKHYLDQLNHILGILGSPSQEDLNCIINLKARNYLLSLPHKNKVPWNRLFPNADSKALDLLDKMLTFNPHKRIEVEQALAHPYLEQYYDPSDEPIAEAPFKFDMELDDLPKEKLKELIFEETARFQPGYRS
Description: (§2) AlphaScreen assay was used to screen additional kinases. The assay is similarly dependent on the phosphorylation of a peptide substrate. In this assay, an antibody that recognizes phosphorylated substrate is bound to an acceptor bead. The peptide substrate is attached to biotin, which binds to a donor head that contains streptavidin. Thus phosphorylated substrate is bound by antibody and streptavidin, bringing the donor and acceptor heads into close proximity when kinase is not inhibited. The donor produces singlet oxygen which results in emission from the acceptor when they are in close proximity. Conversely, when kinase is inhibited, the donor and acceptor beads are not associated and the emission from the acceptor is reduced.
(§3) AlphaScreen assays were done using compounds dissolved in DMSO to a concentration of 20 mM. The compounds were diluted accordingly to the desired final concentrations in each sample well, using 1:3 serial dilution for a total of 8 concentration points.

FGFR1 = biological target: T5, FGFR1 (Homo sapiens, UniProt P11362, C488A/C584S); test: AlphaScreen kinase assay, FGFR1; settings: read-out: IC50, activity toward kinase FGFR
T5 construct: P1351.pET N6 BI-PTP FGFR A458-E765-X C488A, C584S; made in house; host or cells: E. coli (PTP1B co-expressed)
T5 sequence (P11362 458-765 C488A/C584S): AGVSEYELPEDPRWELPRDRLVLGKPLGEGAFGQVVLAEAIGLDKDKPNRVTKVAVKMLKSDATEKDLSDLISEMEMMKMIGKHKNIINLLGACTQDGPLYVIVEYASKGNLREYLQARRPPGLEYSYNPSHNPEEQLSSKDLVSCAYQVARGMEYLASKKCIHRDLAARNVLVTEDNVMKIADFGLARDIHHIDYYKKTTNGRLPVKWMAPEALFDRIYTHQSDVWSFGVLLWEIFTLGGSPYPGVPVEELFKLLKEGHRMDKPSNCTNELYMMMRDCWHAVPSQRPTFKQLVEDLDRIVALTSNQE

Flt1 = biological target: T6, Flt1 (Homo sapiens, UniProt P17948); test: AlphaScreen kinase assay, Flt1; settings: read-out: IC50, activity toward kinase Flt1
T6 construct: P1826.pETN6 BI-PTP FLT1 M799-D1165-X WT; His6 (N); made in house; host or cells: E. coli (PTP1B co-expressed)
T6 sequence (P17948 with tags, fused parts or gaps): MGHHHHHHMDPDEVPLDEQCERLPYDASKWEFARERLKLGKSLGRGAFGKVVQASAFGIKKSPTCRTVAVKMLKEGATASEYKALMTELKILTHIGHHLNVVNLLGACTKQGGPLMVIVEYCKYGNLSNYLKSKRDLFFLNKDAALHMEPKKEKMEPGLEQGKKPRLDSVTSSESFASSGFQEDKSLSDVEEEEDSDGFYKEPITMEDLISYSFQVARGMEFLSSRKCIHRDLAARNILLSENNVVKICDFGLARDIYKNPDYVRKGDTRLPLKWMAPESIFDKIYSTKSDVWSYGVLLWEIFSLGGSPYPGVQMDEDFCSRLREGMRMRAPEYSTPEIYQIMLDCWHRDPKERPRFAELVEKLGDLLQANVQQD

Flt4 = biological target: T7, Flt4 (Homo sapiens, UniProt P35916); test: AlphaScreen kinase assay, Flt4; settings: read-out: IC50, activity toward kinase Flt4
T7 construct: purchased ProQinase GmbH (Freiburg, Germany)
Method in brief: as §1

Jnk3 = biological target: T8, Jnk3 (Homo sapiens, UniProt P53779); test: AlphaScreen kinase assay, Jnk3; settings: read-out: IC50, activity toward kinase Jnk3
T8 construct: purchased Upstate Biotechnology

Kdr = biological target: T9, Kdr (Homo sapiens, UniProt P35968); test: Z'-Lyte FRET kinase assay (Invitrogen), Kdr; settings: read-out: IC50, activity toward kinase Kdr
T9 construct: purchased Invitrogen (assay run by Invitrogen)
T9 sequence (P35968 20-1356): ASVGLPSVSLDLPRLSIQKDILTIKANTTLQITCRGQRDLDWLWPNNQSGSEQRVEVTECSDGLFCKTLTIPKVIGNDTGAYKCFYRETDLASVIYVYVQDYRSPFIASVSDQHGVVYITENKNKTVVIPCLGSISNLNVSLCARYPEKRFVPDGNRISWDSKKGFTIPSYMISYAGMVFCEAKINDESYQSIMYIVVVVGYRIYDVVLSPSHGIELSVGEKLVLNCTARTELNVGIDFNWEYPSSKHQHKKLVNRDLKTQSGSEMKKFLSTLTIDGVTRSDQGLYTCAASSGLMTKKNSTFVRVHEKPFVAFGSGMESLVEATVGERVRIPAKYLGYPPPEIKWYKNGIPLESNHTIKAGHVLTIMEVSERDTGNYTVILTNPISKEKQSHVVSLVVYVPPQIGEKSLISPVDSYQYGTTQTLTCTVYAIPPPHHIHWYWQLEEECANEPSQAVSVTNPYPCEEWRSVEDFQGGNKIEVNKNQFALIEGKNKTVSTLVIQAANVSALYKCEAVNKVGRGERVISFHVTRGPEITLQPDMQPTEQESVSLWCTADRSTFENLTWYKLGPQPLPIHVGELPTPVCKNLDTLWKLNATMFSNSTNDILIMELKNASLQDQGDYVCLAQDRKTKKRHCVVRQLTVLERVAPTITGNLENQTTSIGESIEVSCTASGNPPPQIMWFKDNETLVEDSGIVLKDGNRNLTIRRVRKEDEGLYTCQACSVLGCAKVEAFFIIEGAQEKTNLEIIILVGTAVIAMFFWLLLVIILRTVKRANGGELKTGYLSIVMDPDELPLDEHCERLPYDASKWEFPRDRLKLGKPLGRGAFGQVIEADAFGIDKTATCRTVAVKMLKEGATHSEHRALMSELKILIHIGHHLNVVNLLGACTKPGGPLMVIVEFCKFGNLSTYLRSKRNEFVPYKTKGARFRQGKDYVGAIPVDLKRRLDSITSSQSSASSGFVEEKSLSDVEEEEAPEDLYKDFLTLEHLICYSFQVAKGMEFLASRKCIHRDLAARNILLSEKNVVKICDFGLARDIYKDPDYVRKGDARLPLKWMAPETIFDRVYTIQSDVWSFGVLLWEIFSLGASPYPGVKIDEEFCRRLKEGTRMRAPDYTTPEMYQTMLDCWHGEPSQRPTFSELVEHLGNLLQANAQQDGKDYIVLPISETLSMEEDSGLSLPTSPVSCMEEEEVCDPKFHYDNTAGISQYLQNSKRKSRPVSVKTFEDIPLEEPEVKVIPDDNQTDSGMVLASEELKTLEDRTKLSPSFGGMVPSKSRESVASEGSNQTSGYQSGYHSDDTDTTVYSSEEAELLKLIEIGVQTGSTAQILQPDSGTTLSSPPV

Kit = biological target: T10, Kit (Homo sapiens, UniProt P10721); test: AlphaScreen kinase assay, Kit; settings: read-out: IC50, activity toward kinase Kit
T10 construct: P1332.N6 BI PTP KIT M552-K948-X COD; His6 (N); made in house; host or cells: E. coli (PTP1B co-expressed)
T10 sequence (P10721 with tags, fused parts or gaps): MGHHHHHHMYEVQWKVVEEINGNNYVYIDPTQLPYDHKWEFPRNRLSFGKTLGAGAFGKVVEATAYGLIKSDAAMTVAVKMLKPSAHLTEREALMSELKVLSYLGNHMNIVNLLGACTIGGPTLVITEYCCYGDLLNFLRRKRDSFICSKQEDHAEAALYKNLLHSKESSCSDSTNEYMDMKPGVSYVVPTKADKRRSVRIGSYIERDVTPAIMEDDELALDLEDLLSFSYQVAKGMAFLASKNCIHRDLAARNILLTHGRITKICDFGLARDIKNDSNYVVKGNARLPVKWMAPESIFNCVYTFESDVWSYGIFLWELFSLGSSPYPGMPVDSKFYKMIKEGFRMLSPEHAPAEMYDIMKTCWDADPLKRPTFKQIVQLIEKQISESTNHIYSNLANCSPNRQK

Met = biological target: T11, Met (Homo sapiens, UniProt P08581); test: AlphaScreen kinase assay, Met; settings: read-out: IC50, activity toward kinase Met
T11 construct: P1818.pETN6 BI-PTP MET G1056-G1364-X WT; His6 (N); made in house; host or cells: E. coli (PTP1B co-expressed)
Method in brief: as §1

Pyk2 = biological target: T12, Pyk2 (Homo sapiens, UniProt Q14289); test: AlphaScreen kinase assay, Pyk2; settings: read-out: IC50, activity toward kinase Pyk2
T12 construct: purchased Upstate Biotechnology
T12 sequence (Q14289 whole entry): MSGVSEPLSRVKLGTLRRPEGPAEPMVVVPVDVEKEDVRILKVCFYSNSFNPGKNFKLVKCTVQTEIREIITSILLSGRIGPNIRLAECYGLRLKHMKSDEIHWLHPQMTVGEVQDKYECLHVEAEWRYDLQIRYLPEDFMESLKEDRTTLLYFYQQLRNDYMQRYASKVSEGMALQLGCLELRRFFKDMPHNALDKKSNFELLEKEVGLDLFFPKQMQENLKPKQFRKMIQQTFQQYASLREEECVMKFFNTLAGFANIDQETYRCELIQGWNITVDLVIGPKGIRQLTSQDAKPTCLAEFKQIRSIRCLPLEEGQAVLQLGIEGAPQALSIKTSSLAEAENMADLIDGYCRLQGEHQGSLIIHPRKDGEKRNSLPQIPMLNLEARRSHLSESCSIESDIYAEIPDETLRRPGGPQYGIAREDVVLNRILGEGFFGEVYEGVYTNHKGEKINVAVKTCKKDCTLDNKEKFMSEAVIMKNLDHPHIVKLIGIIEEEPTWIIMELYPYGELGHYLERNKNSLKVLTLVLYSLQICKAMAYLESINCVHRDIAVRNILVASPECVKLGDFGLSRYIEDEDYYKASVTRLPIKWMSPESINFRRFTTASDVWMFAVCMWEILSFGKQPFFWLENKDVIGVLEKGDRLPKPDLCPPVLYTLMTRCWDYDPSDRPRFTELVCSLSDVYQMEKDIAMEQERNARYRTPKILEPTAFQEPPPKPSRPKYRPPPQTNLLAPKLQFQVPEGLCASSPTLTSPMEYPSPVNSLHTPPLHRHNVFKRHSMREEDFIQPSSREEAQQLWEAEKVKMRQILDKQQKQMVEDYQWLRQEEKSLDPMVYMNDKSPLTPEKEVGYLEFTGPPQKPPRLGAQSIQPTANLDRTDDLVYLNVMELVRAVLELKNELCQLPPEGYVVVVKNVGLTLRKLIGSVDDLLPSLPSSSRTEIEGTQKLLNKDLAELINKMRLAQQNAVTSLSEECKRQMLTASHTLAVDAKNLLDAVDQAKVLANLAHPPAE
Description: AlphaScreen assays were done using compounds dissolved in DMSO to a concentration of 20 mM. The compounds were diluted accordingly to the desired final concentrations in each sample well, using 1:3 serial dilution for a total of 8 concentration points. Plates were prepared such that each kinase reaction is 20 μl in 1× kinase buffer, 5% DMSO and 10 μM ATP. After incubation of the kinase reaction for 1 hour at room temperature, 5 μl of donor beads in stop buffer (50 mM EDTA in 1× kinase buffer) was added, the sample was mixed and incubated for 20 minutes at room temperature before adding 5 μl of acceptor beads in stop buffer. The samples were incubated for 60 minutes at room temperature and the signal per well was read on AlphaQuest reader.

Ret = biological target: T13, Ret (Homo sapiens, UniProt P07949); test: AlphaScreen kinase assay, Ret; settings: read-out: IC50, activity toward kinase Ret
T13 construct: P1378.pET-SF BI-PTP RET H661-R1012 HIS; made in house
T13 sequence (P07949 with tags, fused parts or gaps): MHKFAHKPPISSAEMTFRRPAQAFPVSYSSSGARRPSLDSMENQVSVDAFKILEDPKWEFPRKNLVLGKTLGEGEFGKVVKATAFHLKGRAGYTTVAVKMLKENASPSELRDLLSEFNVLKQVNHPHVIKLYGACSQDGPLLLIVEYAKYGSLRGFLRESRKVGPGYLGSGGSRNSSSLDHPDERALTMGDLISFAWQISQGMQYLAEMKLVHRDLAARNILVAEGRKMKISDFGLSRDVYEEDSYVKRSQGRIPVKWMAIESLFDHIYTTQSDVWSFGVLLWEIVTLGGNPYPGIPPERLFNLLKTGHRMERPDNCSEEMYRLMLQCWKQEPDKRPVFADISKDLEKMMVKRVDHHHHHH

Src = biological target: T14, Src (Homo sapiens, UniProt P12931); test: AlphaScreen kinase assay, Src; settings: read-out: IC50, activity toward kinase Src
T14 construct: P1144. pET-N6 BI-PTP SRC V86-L536-X; made in house
T14 sequence (P12931 with tags, fused parts or gaps): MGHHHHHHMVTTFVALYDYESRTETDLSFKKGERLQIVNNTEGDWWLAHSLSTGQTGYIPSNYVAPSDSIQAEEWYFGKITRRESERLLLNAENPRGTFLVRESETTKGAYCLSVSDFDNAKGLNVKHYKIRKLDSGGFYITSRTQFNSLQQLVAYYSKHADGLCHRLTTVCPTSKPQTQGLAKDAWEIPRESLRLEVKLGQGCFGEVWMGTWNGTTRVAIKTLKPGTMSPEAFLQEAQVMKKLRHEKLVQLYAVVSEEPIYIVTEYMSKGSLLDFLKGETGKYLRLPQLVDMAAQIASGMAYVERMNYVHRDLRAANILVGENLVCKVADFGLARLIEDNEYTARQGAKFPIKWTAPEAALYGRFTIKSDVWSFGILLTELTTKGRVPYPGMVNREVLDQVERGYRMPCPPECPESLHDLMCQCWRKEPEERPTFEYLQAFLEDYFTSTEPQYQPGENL

Zap70 = biological target: T15, Zap70 (Homo sapiens, UniProt P43403); test: AlphaScreen kinase assay, Zap70; settings: read-out: IC50, activity toward kinase Zap70
T15 construct: P1868.pFastBac1 ZAP70 D327-G606 HIS, WT; His7 (HHHHHHH) (C); made in house
T15 sequence (P43403 with tags, fused parts or gaps): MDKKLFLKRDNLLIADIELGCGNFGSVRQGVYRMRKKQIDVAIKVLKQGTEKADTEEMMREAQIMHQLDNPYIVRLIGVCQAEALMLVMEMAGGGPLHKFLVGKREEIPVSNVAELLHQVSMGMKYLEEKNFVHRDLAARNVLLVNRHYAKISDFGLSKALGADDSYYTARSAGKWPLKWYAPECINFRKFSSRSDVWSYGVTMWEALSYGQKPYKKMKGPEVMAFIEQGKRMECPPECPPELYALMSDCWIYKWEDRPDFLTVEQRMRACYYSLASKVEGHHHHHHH
Method in brief: as §1

Fak = biological target: T16, Fak (Homo sapiens, UniProt Q05397); test: AlphaScreen kinase assay, Fak; settings: read-out: IC50, activity toward kinase Fak
T16 construct: P1358.pFastBacHtb FAK S411-Q686-X; His6 with pFastBacHTb leader (TEV site) (N); made in house; host or cells: Sf9 (baculovirus)
T16 sequence (Q05397 411-686): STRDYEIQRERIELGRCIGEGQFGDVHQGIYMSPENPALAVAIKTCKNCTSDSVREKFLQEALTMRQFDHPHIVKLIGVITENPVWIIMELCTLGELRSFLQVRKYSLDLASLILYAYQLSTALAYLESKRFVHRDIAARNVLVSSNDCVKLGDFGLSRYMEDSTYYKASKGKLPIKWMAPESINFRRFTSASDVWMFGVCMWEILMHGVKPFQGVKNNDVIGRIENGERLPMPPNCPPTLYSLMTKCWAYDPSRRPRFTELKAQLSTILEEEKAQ

Btk = biological target: T17, Btk (Homo sapiens, UniProt Q06187); test: Z'-Lyte FRET kinase assay (Invitrogen), Btk; settings: read-out: IC50, activity toward kinase Btk
T17 construct: purchased Invitrogen (assay run by Invitrogen)

c-Raf-1 = biological target: T18, c-Raf-1 (Homo sapiens, UniProt P04049); test: AlphaScreen kinase assay, c-Raf-1; settings: read-out: IC50, activity toward kinase c-Raf-1
T18 construct: purchased Upstate Biotechnology

Fms = biological target: T19, Fms (Homo sapiens, UniProt P07333); test: AlphaScreen kinase assay, Fms; settings: read-out: IC50, activity toward kinase Fms
T19 construct: purchased Upstate Biotechnology

Stk6 = biological target: T20, Stk6 (Homo sapiens, UniProt O14965); test: Z'-Lyte FRET kinase assay (Invitrogen), Stk6; settings: read-out: IC50, activity toward kinase Stk6
T20 construct: purchased Invitrogen (Carlsbad, Calif.), screening service
T20 sequence (O14965 1-403): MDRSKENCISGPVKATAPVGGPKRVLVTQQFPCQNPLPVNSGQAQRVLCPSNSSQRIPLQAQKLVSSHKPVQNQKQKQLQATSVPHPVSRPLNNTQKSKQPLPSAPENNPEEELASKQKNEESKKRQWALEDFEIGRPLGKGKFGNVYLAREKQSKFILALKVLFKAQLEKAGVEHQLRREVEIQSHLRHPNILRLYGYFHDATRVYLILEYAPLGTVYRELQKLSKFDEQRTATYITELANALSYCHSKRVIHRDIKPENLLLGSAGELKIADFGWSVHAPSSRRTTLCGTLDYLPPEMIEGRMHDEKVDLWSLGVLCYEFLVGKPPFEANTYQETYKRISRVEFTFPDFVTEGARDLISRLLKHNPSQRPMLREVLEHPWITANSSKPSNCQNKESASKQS

Csk = Csk (Homo sapiens, UniProt P41240); test: AlphaScreen kinase assay, Csk; settings: read-out: IC50, activity toward kinase Csk
Method in brief: as §1

Frk = Frk (Homo sapiens, UniProt P42685); test: AlphaScreen kinase assay, Frk; settings: read-out: IC50, activity toward kinase Frk
Method in brief: as §1

Hck = Hck (Homo sapiens, UniProt P08631); test: AlphaScreen kinase assay, Hck; settings: read-out: IC50, activity toward kinase Hck
Description: as §2, §3

MAP4K4 = MAP4K4 (Homo sapiens, UniProt O95819); test: AlphaScreen kinase assay, MAP4K4; settings: read-out: IC50, activity toward kinase MAP4K4
PDGFRA = PDGFRA (Homo sapiens, UniProt P16234); test: AlphaScreen kinase assay, PDGFRA; settings: read-out: IC50, activity toward kinase PDGFRA
Description: as §2, §3

Brk = Brk (Homo sapiens, UniProt Q13882); test: AlphaScreen kinase assay, Brk; settings: read-out: IC50, activity toward kinase Brk
Method in brief: as §1

Measured: IC50

O=S(=O)(NCc1c[nH]c2ncccc12)c1cc(Cl)c(Cl)s1 [Compound P-0550]
not listed: Fak | Btk | c-Raf-1 | Fms | Stk6 | Csk | Frk | Hck | MAP4K4 | PDGFRA | Brk
≤ 10 µM: all other assays above

O=S(=O)(NCc1c[nH]c2ncccc12)c1ccc(N2CCOCC2)nc1 [Compound P-0611]
≤ 10 µM: Abl | Erk2 | Fak | FGFR1 | Kdr | Kit | Pyk2 | Ret | Zap70

O=C(c1c(F)ccc(NS(=O)(=O)c2ccccc2)c1F)c1c[nH]c2ncc(Cl)cc12 [Compound P-0885, N-[3-(5-Chloro-1H-pyrrolo[2,3-b]pyridine-3-carbonyl)-2,4-difluorophenyl]-benzenesulfonamide]
not listed: Erk2 | Flt1 | Flt4 | Jnk3 | Kdr | Met | Pyk2 | Ret | Zap70
≤ 10 µM: all other assays above
